Data from article PMC3164524 (Biochemistry, 2011).
Square brackets hold non-standard residues; d marks the D form. Peptide text beside a SMILES is read from it. pY = N[C@@H](Cc1ccc(OP(=O)(O)O)cc1)C(=O)O

Biological target: T1, SHP-2 N-SH2 domain (Homo sapiens, UniProt Q06124)
T1 sequence (Q06124 1-106): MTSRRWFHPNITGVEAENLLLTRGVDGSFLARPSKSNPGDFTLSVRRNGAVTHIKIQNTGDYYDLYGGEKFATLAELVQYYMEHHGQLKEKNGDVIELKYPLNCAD
Test: SPR competition assay against immobilized pYAQL peptide
Type: binding

Question: For `CC(C)C[C@H](NC(=O)[C@H](CCC(N)=O)NC(=O)[C@H](C)NC(=O)[C@H](Cc1ccc(OP(=O)(O)O)cc1)NC(=O)[C@H](CC(N)=O)NC(=O)[C@H](CC(C)C)NC(=O)[C@@H](N)CCCNC(=N)N)C(=O)N[C@@H](Cc1c[nH]c2ccccc12)C(=O)N[C@@H](Cc1c[nH]cn1)C(=O)N[C@@H](CCCNC(=N)N)C(N)=O` [pYAQL] (H-RLN[pY]AQLWHR-NH2), which IC50 is on record?
Answer: 0.6 ± 0.1 µM
